≈ marks a conversion by molar mass, not a printed value.
Assays:
[1] = tested on: extracellular dopamine (DA) in the nucleus accumbens (NAcc); test: In vivo microdialysis in rat nucleus accumbens, dopamine; set-up: species or system Sprague Dawley rats; conditions: 7 mg/kg I.P.
Experimental: (§1) Methods and Procedure: This study was conducted in compliance with previously described procedures to assure data integrity, adherence to GLP regulations, and standard preclinical study and surgery procedures. The in vivo microdialysis technique was applied to measure the over-time variations of DA, 5-HT, and NE extracellular (EC) concentrations in conscious, freely-moving Sprague Dawley rats. Levels of the neurotransmitters in microdialysis samples were determined using LC-MS/MS analysis. The experiment was also conducted with MDMA for comparative purposes.
(§2) As it relates to cannula implantation, the rats were anesthetized with isoflurane 4% in oxygen (2-2.5 L/min), then the isoflurane concentration 2-2.5% was maintained via a nose cone adapted to the stereotaxic apparatus. The rats were treated with meloxicam (0.2 mg/kg, subcutaneously, sc; Meloxidolor) and amoxicilline (150 mg/kg, sc, Betamox LA). The skull was then shaved and disinfected. Rats were then placed in a stereotaxic apparatus for small animals. One vertical guide cannula was inserted through a 1 mm hole drilled on the exposed skull. Coordinates, with respect to the bregma to target specific brain areas, followed indications from stereotaxic atlas of the rat brain. Specifically a guide cannula (MAB 4.12.IC, Agn Tho's AB, Lidinga, Sweden) was inserted in the NAcc (anteroposterior+1.6; lateral −1.6; dorsoventral −6.0). The guide cannula was then secured with dental cement and 2-4 screws. At the end of the surgery the animal was isolated in a single cage during recovery, for a period of at least one week, during which animal health conditions were checked twice daily and the weight recorded twice a week. Animals continued to be housed singly throughout the experiment. One day before the experiment the cannula stylet was removed and a microdialysis probe with a dialyzing length of 2 mm (MAB 4.12.2 Cu, Agn Tho's AB, Lidingo, Sweden) was inserted. Probes can be re-used 2 times for 2 experimental sessions after appropriate cleaning with fresh milliQ water.
(§3) Post-surgery, the rats were maintained in a heating chamber prior to waking up in order to avoid hypothermia that could be caused by anaesthesia. 5 mL of physiologic solution was subcutaneously administered immediately after surgery, and once/day for 2-3 days, if signs of dehydration are noticed. Meloxicam (Meloxidolor) 0.2 mg/kg was again administered subcutaneously the day after surgery as well as after 48 h after surgery together with Amoxicilline Long Acting (Betamox LA) 150 mg/kg. Health status and body weight was checked every day during the first week.
(§4) The animals were treated with the therapeutic compounds, and MDMA, or their vehicle (saline) according to a Latin square design over 5 separate experimental days (one day/week). The treatments were administered in a volume of 1 mL/kg intraperitoneally.
(§5) On the day of the experiment, each animal was taken into the laboratory in its home cage. Inlet tubing of the probe was attached to a dual quartz-lined two channel liquid swivel mounted on a low mass spring counterbalance arm which, in turn, was connected to a gas-tight syringe on a microinfusion pump. […] An equilibration period of about two hours of perfusion was allowed before collecting samples. Following the equilibration period, 4 basal samples were collected for each experimental animal followed by further 10 post-treatment samples. Samples were collected every 20 minutes (up to 3 hours and 20 minutes post-treatment) by means of a refrigerated auto-sampler (Univentor 820 Microsampler, AgnTho's, Sweden) maintained at +8 “C. At the end of all experimental sessions, 2 μL of 0.1% methylene blue solution was injected through the microdialysis probe, animals were euthanized, and their brains removed to confirm the correct probe-position.
(§6) As mentioned, the concentration of DA, 5-HT and NE in CSF samples were determined using an optimized method based on LC-MS/MS analysis. […]

[2] = tested on: extracellular noradrenaline (NE) in the nucleus accumbens (NAcc); test: In vivo microdialysis in rat nucleus accumbens, norepinephrine; set-up: species or system Sprague Dawley rats; conditions: 7 mg/kg I.P.; for time of peak NE level / peak NE level: rat NAcc microdialysis; for peak NE level: baseline = 100%; for Norepinephrine (NE) level (% from baseline): rat NAcc
Experimental: as §1, §2, §3, §4, §5, §6

human 5-HT2A receptor = target: T1, human 5-HT2A receptor (Homo sapiens, UniProt P28223); test: Intracellular calcium response (FLIPR) in CHO cells expressing human 5-HT2A receptor; format: cell-based; conditions: n=2; for 5-HT2A agonist mode pEC50: intracellular calcium; for 5-HT2A antagonist mode pIC50: inhibition of serotonin EC80 response
T1 construct: expressed in transfected cells; host or cells: CHO
T1 sequence (P28223 whole entry): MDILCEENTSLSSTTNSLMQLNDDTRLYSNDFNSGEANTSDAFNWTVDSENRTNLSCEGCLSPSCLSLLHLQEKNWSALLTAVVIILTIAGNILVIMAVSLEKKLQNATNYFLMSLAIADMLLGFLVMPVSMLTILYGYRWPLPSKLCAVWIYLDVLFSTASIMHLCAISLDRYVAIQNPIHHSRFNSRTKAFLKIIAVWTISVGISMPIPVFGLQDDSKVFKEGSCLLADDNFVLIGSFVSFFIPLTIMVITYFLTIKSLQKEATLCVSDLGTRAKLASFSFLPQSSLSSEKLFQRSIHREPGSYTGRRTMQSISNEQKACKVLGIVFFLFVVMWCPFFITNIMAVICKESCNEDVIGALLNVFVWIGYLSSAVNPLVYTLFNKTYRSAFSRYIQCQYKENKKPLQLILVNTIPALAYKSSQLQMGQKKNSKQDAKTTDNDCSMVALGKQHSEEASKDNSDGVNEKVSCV
Experimental: Methods: Selectivity for the 5-HT2A receptor was assessed by measuring [ICa2+]i in a CHO recombinant cell line stably expressing the human 5-HT2A receptor, using a Fluorometric Imaging Plate Reader (FLIPR TETRA, Molecular Devices).
The day before the experiment, CHO cells were seeded into black-wells clear-bottom 384-well plates at a density of 10,000 cells per well, in F-12K Medium (ThermoFisher #21127) supplemented with 10% dialyzed fetal bovine serum, and grown overnight at 37° C., 5% C02.
On the day of the experiment, the medium was replaced with assay buffer (20 miM HEPES, 145 mM NaCl, 5 mM KCl, 5.5 mM glucose, 1 mM MgCl2, 2 mM CaCl2 and 2.5 mM probenecid, pH 7.4) containing the cytoplasmic Ca2+ indicator Fluo-4 AM at 2 μM and 0.02% Pluronic F-127. After an incubation of 45-60 minutes at 37° C., 0% C02, cells were washed by Microplate Washer (BIOTEK) 384 with assay buffer, and the plate was transferred to the FLIPR TETRA. Then, intracellular fluorescence was measured in real time by FLIPR TETRA (excitation wavelength at 470-495 nm, emission wavelength at 515-575 nm), using a dual addition protocol.
In the first addition, test compounds (11 points of 1:4 serial dilution, 0.5% DMSO final) were added to the cell plate to evaluate their effect on intracellular calcium levels. In the event of a response, the signal was elaborated for the determination of pEC50/EC50 values.

[3] = Solubility in PBS (pH 7.4), HPLC-UV; format: physicochemical; conditions: for solubility at 120 min: PBS pH 7.4, room temperature, 2% DMSO; for Characterization (solubility class): PBS pH 7.4
Experimental: Stock solutions of therapeutic compounds (20 mM) were prepared in DMSO, on the same day of the experiment when feasible. These solutions were compared with an external standard solution of known concentration via HPLC-UV. To prepare the standard, 4 μL from a 20 mM compound stock solution was added to DMSO in a vial/well, and mixed with shaking at room temperature for 10 minutes. The standard buffer used for the assessment was PBS buffer (pH 7.4), but alternative buffers may also be used, such as biologically relevant Fluids, including Simulated Gastric fluid (SGF) at pH 1.2, Fasted State Simulated Intestinal Fluid (FaSSIF) at pH 6.5, and Fed State Simulated Intestinal Fluid (FeSSIF) at pH 5.0.
An isotonic phosphate buffer (iPBS) was prepared by dissolving a phosphate buffered saline tab (Sigma-Aldrich P4417-50Tab) in 200 mL of deionized water, the final composition of the solution being 10 mM PBS, 2.7 mM kCl, and 137 mM NaCl, yielding a final pH of 7.4 at 25° C. Samples were prepared by dispensing 8 μL from a 20 mM compound stock solution in DMSO in a vial/well in duplicate, adding 392 μL of buffer in each vial/well, and mixed by shaking at room temperature for 120 minutes. The final compound concentration was approximately 400 μM, while the final concentration of DMSO was about 2%. The solutions were then filtered prior to analysis.
Concentrations were determined by comparing UV absorbance of the test solution and of the known standard solution following HPLC separation using a generic fast gradient method employing a DAD detector and UV detection at 230 and 254 nm. Concerning the HPLC Mobile phase, Phase A was a 50 mM ammonium acetate aqueous solution (pH adjusted to 7.4 with ammonia), and Phase B was acetonitrile. For data analysis, chromatographic peaks were automatically integrated, and the parameters were optimized to enable consistent integration of all chromatograms in the entire analytical run. The solubility of each compound was expressed as the ratio of compound amount in the sample test solution to the amount of compound in the standard solution, calculated from the equation “solubility of sample=peak area of sample/peak area of standard×concentration of standard.”

[4] = PBS buffer, aqueous buffer, kinetic from dmso stock

SMILES: COC(=O)c1ccc2c(c1)CC(N)C2 (stereo not drawn) [CMP-405, 2-aminoindane-5-methylcarboxylate]
- Dopamine (DA) level (% from baseline) ([1]; 0 min (basal sample)): 99%
- Dopamine (DA) level (% from baseline) ([1]; 20 min post-admin): 134%
- Dopamine (DA) level (% from baseline) ([1]; 40 min post-admin): 122%
- Dopamine (DA) level (% from baseline) ([1]; 60 min post-admin): 139%
- Dopamine (DA) level (% from baseline) ([1]; 80 min post-admin): 117%
- Dopamine (DA) level (% from baseline) ([1]; 100 min post-admin): 123%
- Dopamine (DA) level (% from baseline) ([1]; 120 min post-admin): 113%
- Dopamine (DA) level (% from baseline) ([1]; 140 min post-admin): 99%
- Dopamine (DA) level (% from baseline) ([1]; 160 min post-admin): 98%
- Dopamine (DA) level (% from baseline) ([1]; 180 min post-admin): 96%
- Dopamine (DA) level (% from baseline) ([1]; 200 min post-admin): 107%
- Dopamine (DA) level (% from baseline) ([1]; −20 min (basal sample)): 101%
- time of peak NE level [2]: 60 min
- peak NE level [2]: 188%
- Norepinephrine (NE) level (% from baseline) ([2]; 0 min (basal sample)): 101%
- Norepinephrine (NE) level (% from baseline) ([2]; 20 min post-admin): 106%
- Norepinephrine (NE) level (% from baseline) ([2]; 40 min post-admin): 167%
- Norepinephrine (NE) level (% from baseline) ([2]; 60 min post-admin): 188%
- Norepinephrine (NE) level (% from baseline) ([2]; 80 min post-admin): 147%
- Norepinephrine (NE) level (% from baseline) ([2]; 100 min post-admin): 136%
- Norepinephrine (NE) level (% from baseline) ([2]; 120 min post-admin): 125%
- Norepinephrine (NE) level (% from baseline) ([2]; 140 min post-admin): 107%
- Norepinephrine (NE) level (% from baseline) ([2]; 160 min post-admin): 122%
- Norepinephrine (NE) level (% from baseline) ([2]; 180 min post-admin): 105%
- Norepinephrine (NE) level (% from baseline) ([2]; 200 min post-admin): 106%
- Norepinephrine (NE) level (% from baseline) ([2]; −20 min (basal sample)): 99%
- 5-HT2A agonist mode pEC50 (human 5-HT2A receptor): comparable to MDMA
- 5-HT2A antagonist mode pIC50 (human 5-HT2A receptor): comparable to MDMA
- solubility at 120 min [3, 4]: 392 µM (≈ 75 µg/mL)
- Characterization (solubility class) [3]: High solubility

SMILES: CNC(C)Cc1ccc2c(c1)OCO2 (stereo not drawn) [MDMA]
- Dopamine (DA) level (% from baseline) ([1]; 0 min (basal sample)): 93%
- Dopamine (DA) level (% from baseline) ([1]; 20 min post-admin): 113%
- Dopamine (DA) level (% from baseline) ([1]; 40 min post-admin): 381%
- Dopamine (DA) level (% from baseline) ([1]; 60 min post-admin): 520%
- Dopamine (DA) level (% from baseline) ([1]; 80 min post-admin): 448%
- Dopamine (DA) level (% from baseline) ([1]; 100 min post-admin): 399%
- Dopamine (DA) level (% from baseline) ([1]; 120 min post-admin): 396%
- Dopamine (DA) level (% from baseline) ([1]; 140 min post-admin): 357%
- Dopamine (DA) level (% from baseline) ([1]; 160 min post-admin): 324%
- Dopamine (DA) level (% from baseline) ([1]; 180 min post-admin): 293%
- Dopamine (DA) level (% from baseline) ([1]; 200 min post-admin): 278%
- Dopamine (DA) level (% from baseline) ([1]; −20 min (basal sample)): 107%
- time of peak NE level [2]: 40 min
- peak NE level [2]: 473%
- Norepinephrine (NE) level (% from baseline) ([2]; 0 min (basal sample)): 100%
- Norepinephrine (NE) level (% from baseline) ([2]; 20 min post-admin): 113%
- Norepinephrine (NE) level (% from baseline) ([2]; 40 min post-admin): 473%
- Norepinephrine (NE) level (% from baseline) ([2]; 60 min post-admin): 457%
- Norepinephrine (NE) level (% from baseline) ([2]; 80 min post-admin): 375%
- Norepinephrine (NE) level (% from baseline) ([2]; 100 min post-admin): 348%
- Norepinephrine (NE) level (% from baseline) ([2]; 120 min post-admin): 350%
- Norepinephrine (NE) level (% from baseline) ([2]; 140 min post-admin): 320%
- Norepinephrine (NE) level (% from baseline) ([2]; 160 min post-admin): 295%
- Norepinephrine (NE) level (% from baseline) ([2]; 180 min post-admin): 275%
- Norepinephrine (NE) level (% from baseline) ([2]; 200 min post-admin): 255%
- Norepinephrine (NE) level (% from baseline) ([2]; −20 min (basal sample)): 100%
- 5-HT2A agonist mode pEC50 (human 5-HT2A receptor): less than 4.3
- 5-HT2A antagonist mode pIC50 (human 5-HT2A receptor): less than 4.3
- Characterization (solubility class) [3]: High solubility
- solubility at 120 min [3]: 386 µM (≈ 74.6 µg/mL)

SMILES: COc1ccc2c(c1)CC(N)C2 (stereo not drawn) [MEAI, 5-methoxy-2-aminoindane]
- Dopamine (DA) level (% from baseline) ([1]; 0 min (basal sample)): 96%
- Dopamine (DA) level (% from baseline) ([1]; 20 min post-admin): 95%
- Dopamine (DA) level (% from baseline) ([1]; 40 min post-admin): 197%
- Dopamine (DA) level (% from baseline) ([1]; 60 min post-admin): 187%
- Dopamine (DA) level (% from baseline) ([1]; 80 min post-admin): 154%
- Dopamine (DA) level (% from baseline) ([1]; 100 min post-admin): 141%
- Dopamine (DA) level (% from baseline) ([1]; 120 min post-admin): 130%
- Dopamine (DA) level (% from baseline) ([1]; 140 min post-admin): 131%
- Dopamine (DA) level (% from baseline) ([1]; 160 min post-admin): 137%
- Dopamine (DA) level (% from baseline) ([1]; 180 min post-admin): 144%
- Dopamine (DA) level (% from baseline) ([1]; 200 min post-admin): 127%
- Dopamine (DA) level (% from baseline) ([1]; −20 min (basal sample)): 104%
- time of peak NE level [2]: 40 min
- peak NE level [2]: 366%
- Norepinephrine (NE) level (% from baseline) ([2]; 0 min (basal sample)): 97%
- Norepinephrine (NE) level (% from baseline) ([2]; 20 min post-admin): 132%
- Norepinephrine (NE) level (% from baseline) ([2]; 40 min post-admin): 366%
- Norepinephrine (NE) level (% from baseline) ([2]; 60 min post-admin): 295%
- Norepinephrine (NE) level (% from baseline) ([2]; 80 min post-admin): 208%
- Norepinephrine (NE) level (% from baseline) ([2]; 100 min post-admin): 194%
- Norepinephrine (NE) level (% from baseline) ([2]; 120 min post-admin): 187%
- Norepinephrine (NE) level (% from baseline) ([2]; 140 min post-admin): 167%
- Norepinephrine (NE) level (% from baseline) ([2]; 160 min post-admin): 140%
- Norepinephrine (NE) level (% from baseline) ([2]; 180 min post-admin): 149%
- Norepinephrine (NE) level (% from baseline) ([2]; 200 min post-admin): 133%
- Norepinephrine (NE) level (% from baseline) ([2]; −20 min (basal sample)): 103%
- 5-HT2A agonist mode pEC50 (human 5-HT2A receptor): comparable to MDMA
- 5-HT2A antagonist mode pIC50 (human 5-HT2A receptor): comparable to MDMA
- solubility at 120 min [3, 4]: 374 µM (≈ 61 µg/mL)
- Characterization (solubility class) [3]: High solubility

— patent US20260159474A1, “Aminoindane Compounds and Compositions and Methods of Their Therapeutic Use” (Solvonis Therapeutics Ireland Holdings Limited, priority 2021, published 2026)
